Reference: patent US20250195530A1, “POLQ INHIBITORS” (ASTRAZENECA AB, priority 2022, published 2025)
Like-named read-outs stand apart in the source and are kept apart here. Values belong to the molecule of their own block, whether it stands above or below them.

Tests used:
DLD-1 BRCA2−/− cells = experiment: Homologous recombination synthetic lethal inhibition of proliferation, DLD-1 BRCA2-/- (Cell Titre Glo 3D); assay type: cell-based; settings: for IC50: Homo sapiens
Summary of the method: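 Isogenic DLD-1 pair; BRCA2−/− seeded 3,000 cells/mL and read day 12, wt seeded 1,500 cells/mL and read day 7. 10-pt titration (top 10 μM, 3-fold), re-fed with compound day 6, 37 °C/5% CO2. CTG 3D endpoint; IC50 at 50% signal loss.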

DLD-1 cells = experiment: Inhibition of proliferation, DLD-1 BRCA2 wt control (Cell Titre Glo 3D); assay type: cell-based; settings: for IC50: Homo sapiens
From the text: This assay identifies anti-proliferative effects of POLQ compounds in the homologous recombination deficient colorectal cell line DLD-1 BRCA2−/− over 8-9 population doublings (7 days for DLD-1 and 12 days for DLD-1 BRCA2−/−). DLD1 BRCA2 wt are used as a control to detect cell toxic effects not specific to homologous recombination deficiency.
DLD-1 BRCA2−/− and DLD-1 cells were kept in continuous culture in Assay Medium (RPMI 1640 phenol red free (Sigma R7509) containing 1% GlutaMAX (Gibco 35050) and 10% Foetal Bovine Serum (Gibco 10270-106)). On the day of the assay cells in culture of ˜80-90% confluent were used. Cell monolayers were washed with 10 mL PBS, then removed and added 2 mL TrypLE Express (Gibco 12604). The cells with TrypLE Express were incubated for 5 minutes in cell culture incubator and then the detached cells resuspend in 15 mL Assay Medium. Cells were counted using a ViCell and the cell images were monitored for clumps of cells, ideally they should be single or <3 cell clusters. The cells were diluted to 3,000 cells/mL of DLD-1 BRCA2−/− and 1,500 cells/mL of DLD-1 in Assay Medium and 100 μL added per well of transparent bottomed, black, tissue culture-treated 96-well plates (CoStar, No. 3904) Assay Ready Plates. The Assay Ready Plates contain a 10 point 10 μM to 0.51 nM dose range with three-fold dilutions in DMSO with a final volume of 100 nL. The plates were incubated at 37° C. with 5% C02 for 6 days. On day 6, 100 μL/well of Assay Medium was added to duplicate Assay Ready Plates. 90 μL of culture medium was removed from the cell plates and replenished with the Assay Media and compounds from the duplicate Assay Ready Plates using the Bravo. The plates were further incubated at 37° C. with 5% CO2. On day 7 the plates containing DLD-1 and Cell Titre Glo 3D (Promega G9683) were equilibrated to room temperature, then 60 μL of Cell Titre Glo 3D was added per well and incubated on a shaking platform for 30 min. Plates were read on the Envision measuring luminescence for 1 second per well. On day 12 the plates containing DLD-1 BRCA2−/− cells and Cell Titre Glo 3D (Promega G9683) were equilibrated to room temperature, then 60 μL Cell Titre Glo 3D added per well and incubated on a shaking platform for 30 min. Plates were read on the Envision measuring luminescence for 1 second per well. The data was exported into a suitable software package (such as Genedata) to perform curve fitting analysis. Inhibition of cell proliferation was expressed as an IC5o value and was determined by calculation of the concentration of compound that was required to give a 50% reduction of the average maximum Total Intensity signal.

[1] = DLD-1, 168 h, DLD-1 BRCA2 wt cells, 7 days, read-out: POLQ PD Prolif Lumin DLD1 mean pIC50 (converted)
[2] = DLD-1, first proliferation column (c5), DLD-1 BRCA2-/-, read-out: POLQ PD Prolif Lumin (converted)
[3] = DLD-1, second proliferation column (c6), DLD-1 BRCA2 wt control, read-out: POLQ PD Prolif Lumin (converted)
[4] = DLD-1, DLD-1 BRCA2-/- proliferation, column head only partly shown, read-out: POLQ PD Prolif Lumin (converted)
[5] = DLD-1, DLD-1 BRCA2 wt control proliferation, column head only partly shown, read-out: POLQ PD Prolif Lumin (converted)
[6] = DLD-1, DLD-1 BRCA2 −/−, mean, read-out: POLQ PD Prolif Lumin BRCA2 −/− mean pIC50 (converted)
[7] = DLD-1, DLD1 BRCA2 wt, mean, read-out: POLQ PD Prolif Lumin DLD1 mean pIC50 (converted)

Structure (SMILES): CN1CCCC1CCOc1ccc(-c2nc3c(OC4(C)CC4)ncnc3n2Cc2ccccc2)c(Cl)c1 (racemic) [Example D2, 9-benzyl-8-(2-chloro-4-(2-(1-methylpyrrolidin-2-yl)ethoxy)phenyl)-6-(1-methylcyclopropoxy)-9H-purine]
IC50 (DLD-1 BRCA2−/− cells; DLD-1, 288 h, DLD-1 BRCA2−/− cells, 12 days, read-out: POLQ PD Prolif Lumin BRCA2 −/− mean pIC50 (converted)): 15.8 nM
IC50 (DLD-1 cells; [1]): 1260 nM

Structure (SMILES): Cc1ccnc(Cn2c(-c3ccc(OC4CNC(=O)C4)cc3Cl)nc3c(OC4(C)CC4)ncnc32)c1 (racemic) [Example T179, 4-(3-chloro-4-(6-(1-methylcyclopropoxy)-9-((4-methylpyridin-2-yl)methyl)-9H-purin-8-yl)phenoxy)pyrrolidin-2-one]
IC50 (DLD-1 BRCA2−/− cells; [2]): 316 nM
IC50 (DLD-1 cells; [3]): > 10000 nM

Structure (SMILES): Cc1ccnc(Cn2c(-c3ccc(OC4CNC(=O)OC4)cc3Cl)nc3c(OC4(C)CC4)ncnc32)c1 (racemic) [Example T187, 5-(3-chloro-4-(6-(1-methylcyclopropoxy)-9-((4-methylpyridin-2-yl)methyl)-9H-purin-8-yl)phenoxy)-1,3-oxazinan-2-one]
IC50 (DLD-1 BRCA2−/− cells; [2]): 1000 nM
IC50 (DLD-1 cells; [3]): > 10000 nM

Structure (SMILES): CC(CCOc1ccc(-c2nc3c(OC4(C)CC4)ncnc3n2Cc2c(F)c(F)c(F)c(F)c2F)c(Cl)c1)C(=O)O (racemic) [Example T251, 4-(3-chloro-4-(6-(1-methylcyclopropoxy)-9-((perfluorophenyl)methyl)-9H-purin-8-yl)phenoxy)-2-methylbutanoic acid]
IC50 (DLD-1 BRCA2−/− cells; [4]): 2000 nM
IC50 (DLD-1 cells; [5]): > 10000 nM

Structure (SMILES): CC(CCOc1ccc(-c2nc3c(OC4(C#N)CC4)ncnc3n2Cc2cccc(Cl)c2)c(Cl)c1)C(=O)O (racemic) [Example T252, 4-(3-chloro-4-(9-(3-chlorobenzyl)-6-(1-cyanocyclopropoxy)-9H-purin-8-yl)phenoxy)-2-methylbutanoic acid]
IC50 (DLD-1 BRCA2−/− cells; [4]): 398 nM
IC50 (DLD-1 cells; [5]): > 10000 nM

Structure (SMILES): CC(CCOc1ccc(-c2nc3c(OC4(C)CC4)ncnc3n2Cc2cc(Br)ccc2F)c(Cl)c1)C(=O)O (racemic) [Example T258, 4-(4-(9-(5-bromo-2-fluorobenzyl)-6-(1-methylcyclopropoxy)-9H-purin-8-yl)-3-chlorophenoxy)-2-methylbutanoic acid]
IC50 (DLD-1 BRCA2−/− cells; [4]): 79.4 nM
IC50 (DLD-1 cells; [5]): > 10000 nM

Structure (SMILES): CC(CCOc1ccc(-c2nc3c(OC4(C)CC4)ncnc3n2Cc2c(Cl)cccc2Br)c(Cl)c1)C(=O)O (racemic) [Example T259, 4-(4-(9-(2-bromo-6-chlorobenzyl)-6-(1-methylcyclopropoxy)-9H-purin-8-yl)-3-chlorophenoxy)-2-methylbutanoic acid]
IC50 (DLD-1 BRCA2−/− cells; [4]): 3160 nM
IC50 (DLD-1 cells; [5]): > 10000 nM

Structure (SMILES): CC(CCOc1ccc(-c2nc3c(OC4(C)CC4)ncnc3n2Cc2cc(F)cc(F)c2)c(Cl)c1)C(=O)O (racemic) [Example T260, 4-(3-chloro-4-(9-(3,5-difluorobenzyl)-6-(1-methylcyclopropoxy)-9H-purin-8-yl)phenoxy)-2-methylbutanoic acid]
IC50 (DLD-1 BRCA2−/− cells; [4]): 251 nM
IC50 (DLD-1 cells; [5]): > 10000 nM

Structure (SMILES): Cc1ccnc(Cn2c(-c3ccc(C4CCC(=O)N4)cc3Cl)nc3c(OC4(C)CC4)ncnc32)c1 (single isomer, unassigned) [Example T173, 5-(3-chloro-4-(6-(1-methylcyclopropoxy)-9-((4-methylpyridin-2-yl)methyl)-9H-purin-8-yl)phenyl)pyrrolidin-2-one]
IC50 (DLD-1 cells; [3]): > 10000 nM

Structure (SMILES): Cc1ccnc(Cn2c(-c3ccc(OC4CCCNCC4)cc3Cl)nc3c(OC4(C)CC4)ncnc32)c1 (single isomer, unassigned) [Example T509, 8-(4-(azepan-4-yloxy)-2-chlorophenyl)-6-(1-methylcyclopropoxy)-9-((4-methylpyridin-2-yl)methyl)-9H-purine]
IC50 (DLD-1 cells; [3]): > 10000 nM

Structure (SMILES): Cc1cc(OC2CNC2)ncc1-c1nc2c(OC3(C)CC3)ncnc2n1Cc1ccccc1 [Example G17, 8-{6-[(azetidin-3-yl)oxy]-4-methylpyridin-3-yl}-9-benzyl-6-[(1-methylcyclopropyl)oxy]-9H-purine]
IC50 (DLD-1 cells; [1]): 7940 nM

Structure (SMILES): CC1(Oc2ncnc3c2nc(-c2ccc(OCCN4CCNCC4)cc2Cl)n3CCc2ccccn2)CC1 [Example J11, 8-(2-chloro-4-(2-(piperazin-1-yl)ethoxy)phenyl)-6-(1-methylcyclopropoxy)-9-(2-(pyridin-2-yl)ethyl)-9H-purine]
IC50 (DLD-1 cells; [1]): > 10000 nM

Structure (SMILES): Cn1cnnc1Cn1c(-c2ccc(OCCN3CCNCC3)cc2Cl)nc2c(OC3(C)CC3)ncnc21 [Example T150, 8-(2-chloro-4-(2-(piperazin-1-yl)ethoxy)phenyl)-9-((4-methyl-4H-1,2,4-triazol-3-yl)methyl)-6-(1-methylcyclopropoxy)-9H-purine]
IC50 (DLD-1 cells; [3]): > 10000 nM

Structure (SMILES): CC1(Oc2ncnc3c2nc(-c2ccc(O[C@H]4CC[C@H](C(=O)O)CC4)cc2Cl)n3Cc2cc(Cl)ccc2F)CC1 [Example U49, (1r,4r)-4-(3-chloro-4-(9-(5-chloro-2-fluorobenzyl)-6-(1-methylcyclopropoxy)-9H-purin-8-yl)phenoxy)cyclohexane-1-carboxylic acid]
POLQ PD Prolif Lumin BRCA2 −/− mean pIC50 (DLD-1 BRCA2−/− cells; DLD-1 BRCA2 −/−, mean): 7.3

Structure (SMILES): CC1(Oc2ncnc3c2nc(-c2cccc(OCC(F)(F)CC(=O)O)c2Cl)n3Cc2cccc(Cl)c2)CC1 [Example U63, 4-(2-chloro-3-(9-(3-chlorobenzyl)-6-(1-methylcyclopropoxy)-9H-purin-8-yl)phenoxy)-3,3-difluorobutanoic acid]
IC50 (DLD-1 BRCA2−/− cells; [6]): 501 nM

Structure (SMILES): CC1(Oc2ncnc3c2nc(-c2c(F)ccc(OCCC(=O)O)c2Cl)n3Cc2cccc(Cl)c2)CC1 [Example U66, 3-(2-chloro-3-(9-(3-chlorobenzyl)-6-(1-methylcyclopropoxy)-9H-purin-8-yl)-4-fluorophenoxy)propanoic acid]
IC50 (DLD-1 BRCA2−/− cells; [6]): 200 nM

Structure (SMILES): COc1ccc(F)cc1Cn1c(-c2cccc(OCC[C@H](C)C(=O)O)c2Cl)nc2c(OC3(C)CC3)ncnc21 [Example U72, (S)-4-(2-chloro-3-(9-(5-fluoro-2-methoxybenzyl)-6-(1-methylcyclopropoxy)-9H-purin-8-yl)phenoxy)-2-methylbutanoic acid]
IC50 (DLD-1 BRCA2−/− cells; [6]): 1.58 nM

Now from value to molecule:

IC50 (DLD-1 cells; [7]): > 10000 nM
Structure (SMILES): COc1ccc(F)cc1Cn1c(-c2cccc(OCCCOCC(=O)O)c2Cl)nc2c(OC3(C)CC3)ncnc21 [Example U71, 2-(3-(2-chloro-3-(9-(5-fluoro-2-methoxybenzyl)-6-(1-methylcyclopropoxy)-9H-purin-8-yl)phenoxy)propoxy)acetic acid]

IC50 (DLD-1 cells; [7]): > 10000 nM
Structure (SMILES): COc1ccc(F)cc1Cn1c(-c2cccc(OCC[C@@H](C)C(=O)O)c2Cl)nc2c(OC3(C)CC3)ncnc21 [Example U78, (R)-4-(2-chloro-3-(9-(5-fluoro-2-methoxybenzyl)-6-(1-methylcyclopropoxy)-9H-purin-8-yl)phenoxy)-2-methylbutanoic acid]

POLQ PD Prolif Lumin DLD1 mean pIC50 (DLD-1 cells; DLD1 BRCA2 wt, mean): <5.0
Structure (SMILES): CC1(Oc2ncnc3c2nc(-c2cccc(O[C@H]4CC[C@H](C(=O)O)CC4)c2Cl)n3Cc2cc(Cl)ccc2C#N)CC1 [Example U85, (1r,4r)-4-(2-chloro-3-(9-(5-chloro-2-cyanobenzyl)-6-(1-methylcyclopropoxy)-9H-purin-8-yl)phenoxy)cyclohexane-1-carboxylic acid]

IC50 (DLD-1 cells; [7]): > 10000 nM
Structure (SMILES): COc1ccc(Cl)cc1Cn1c(-c2ccc(OCCCOC(C)(C)C(=O)O)cc2Cl)nc2c(OC3(C)CC3)ncnc21 [Example U92, 2-(3-(3-chloro-4-(9-(5-chloro-2-methoxybenzyl)-6-(1-methylcyclopropoxy)-9H-purin-8-yl)phenoxy)propoxy)-2-methylpropanoic acid]
